Assay results: patent publication US20130109751A1, “LSD-1 ENZYME INHIBITORS FOR INDUCING OSTEOGENIC DIFFERENTIATION” ([…].R.L., priority 2011, published 2013)

How the values were obtained:
Format in all cases: cell-based, mice
W20-17 cells [1] = assay: Expression profile of osteogenic markers by real-time PCR; conditions: osteogenic medium, 21 days' treatment, normalised to GAPDH, vs osteogenic medium alone
W20-17 cells [2] = assay: Alizarin Red staining of mineralised nodules under different growth conditions (minimum medium); conditions: 21 days, absence of dexamethasone and ascorbic acid, glycerol 2-phosphate necessary
Procedure: On the 21st day, the presence of mineralised matrix was evaluated by histochemical staining with Alizarin Red. The cells were washed with PBS, fixed with a 10% formaldehyde solution, and incubated with a 2% solution of Alizarin Red (pH 4.1-4.3) for one hour.
To evaluate the minimum composition of a medium capable of inducing the formation of mineralised matrix, W20-17 cells were seeded in a 96-well plate and cultured for 21 days under different growth conditions.
At the end of the treatment the cells were stained with Alizarin Red, as described in example 2, to evaluate the formation of mineralised nodules.

LSD-1 = target: T1, LSD-1 (Mus musculus, UniProt Q6ZQ88); assay: In vitro enzymatic activity assay of LSD-1 on W20-17 cells; conditions: osteogenic medium supplemented with compound, vs osteogenic medium
T1 construct: endogenous in cells; host or cells: W20-17 cells
Procedure: To evaluate whether the activity of enzyme LSD-1 is inhibited during osteogenic differentiation, an in vitro enzymatic activity assay was performed on W20-17 cells to assess the percentage inhibition of LSD-1 activity under different conditions.

| Structure (SMILES) | expression of late marker osteocalcin (W20-17 cells [1]) | mineralisation (Alizarin Red, mineralised nodules) (W20-17 cells [2]) | percentage inhibition of LSD-1 activity (LSD-1) |
| --- | --- | --- | --- |
| NC1CC1c1ccc(NC(=O)C(Cc2ccccc2)NC(=O)OCc2ccccc2)cc1 (stereo not shown) [MC2580] | most marked | promotes mineralisation | percentage inhibition increases |
| N[C@@H]1C[C@H]1c1ccccc1 (racemic) [tranylcypromine, reference compound] | – | promotes mineralisation | – |
